Common to all, as to test: growth of human tumour cells (NCI), 48 h
Experiment [1] deals with A498 renal.
In experiment [2] the test system is LXFL 529 NSCLC.
In experiment [3] the test system is SF-268 CNS.
For experiment [4], the system named is UO-31 renal.
The subject of experiment [5] is SK-MEL-28 melanoma.
Experiment [6] relates to M19-MEL melanoma.
The subject of experiment [7] is HOP-62 NSCLC.
Experiment [8] concerns MALME-3M melanoma.
Experiment [9] relates to MDA-MB-231 breast.
The test system of experiment [10] is MDA-MB-435.

Structures are written as SMILES. Several values for one entry are separate records, joined by “and”; a condition that tells them apart may be missing. Equal entries are not always repeated.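 In this assay, cells in 96-well plates receive the compound at five concentrations for 48 hours. Endpoints are linearly interpolated between the surrounding concentrations. GI50 marks 50% less growth. TGI: total growth inhibition.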

Turning to `O=C(c1ccccc1)C1OC12C(=O)Nc1c(Cl)cc(Cl)cc12` (stereo unspecified), the TGI was above 100 µM in experiment [1]; above 53.9 µM in experiment [2]; above 100 µM in experiment [3]; above 100 µM in experiment [4]; above 100 µM in [5]; above 77.6 µM in [6]. Moreover, the TGI in [7] and in experiment [8] was above 100 µM in each case.

On to `O=c1ncc(F)cn1C1OC(CO)C(O)C1O` (stereo unspecified), for which the TGI in experiment [1] is above 100 µM; in [2], above 43.8 µM; in [3] it was above 77.4 µM; in [4], above 100 µM; in experiment [5], above 46.4 µM; in experiment [6], above 54 µM. The TGI in experiment [7] was above 100 µM; in experiment [8], above 51.5 µM.

With `CSc1nc(NC2OC(COC(C)=O)C(OC(C)=O)C(OC(C)=O)C2OC(C)=O)c2c(n1)OCC2=O` (stereo unspecified), the TGI in experiment [1], in experiment [2], in experiment [3], in [4], in [5] and in experiment [6] was above 100 µM each time. Moreover, the TGI in experiment [7] and in experiment [8] was above 100 µM in each case.

Turning to `Oc1ccc2ccccc2c1N=Nc1ccsc1`, the TGI in experiment [1], in experiment [2], in [3], in experiment [4], in experiment [5] and in experiment [6] was above 100 µM throughout. Also, the TGI in [7] and in experiment [8] was above 100 µM in each case.

For the molecule `CCC[CH2][Sn]1([CH2]CCC)[O]CC(CN(C)Cc2ccccc2)[O]1` (stereo unspecified), the GI50 in [1] was 15.1 µM; in experiment [2], 1.6 µM; in [3], 5.89 µM; in experiment [4], 12.2 µM; in [5], 13.3 µM; in experiment [6], 6.73 µM. For the same molecule, the figures for the GI50 in experiment [7] and in experiment [8] were 14.1 µM and 2.72 µM, respectively. Further, the TGI was 29.4 µM in experiment [1]; 5 µM in experiment [2]; 17.7 µM in [3]; 24.7 µM in experiment [4]; 26.5 µM in experiment [5]; 19.8 µM in [6]. Besides, the TGI in experiment [7] was determined as 27.7 µM; in experiment [8] it was 9.21 µM.

Take `O=[P+](O)c1ccsc1`: the TGI in experiment [1], in [2], in [3], in experiment [4], in [5] and in experiment [6] was above 100 µM each time. The same molecule registered a TGI in experiment [7] above 100 µM.

In the case of `O=C(CCN1CCN(c2ccccc2)CC1)N1CCc2c([nH]c3ccccc23)C1c1cccnc1` (stereo unspecified), the TGI was determined as 37.7 µM in experiment [1]; 31.6 µM in experiment [2]; 26.1 µM in experiment [4]; 29.1 µM in [5]; 37.1 µM in experiment [6]; 40.4 µM in [7]. This molecule displayed a TGI in [8] of 39.2 µM.

Take `CC(C)([NH-])CO.CC(C)([NH-])CO.[Cl][Cd][Cl]`: the GI50 is 15 µM in experiment [2]; 18.4 µM in experiment [3]; 35.4 µM in experiment [4]; 16.5 µM in experiment [5]; 16.9 µM in [6]; above 100 µM in [7]. Moreover, in [8], the GI50 was 8.6 µM. The TGI was 29.3 µM in experiment [2]; 35.3 µM in experiment [3]; above 100 µM in experiment [4]; 30.1 µM in experiment [5]; 38.3 µM in [6]; above 100 µM in [7]. In addition, the TGI in experiment [8] stood at 22.4 µM.

For `NC(=O)/N=C1/CCC2C3CCCC2C13`, the TGI in experiment [2], in experiment [3], in experiment [4], in experiment [5] and in experiment [7] was above 100 µM in each case.

On to `O=C(O)C1(C(=O)O)CCC1.[NH2-].[NH2-].[Pt+2]`, for which the GI50 was 224 µM and 154 µM in experiment [1]; 247 µM in experiment [2]; 49.2 µM and 21.5 µM in experiment [3]; 167 µM and 84.1 µM in experiment [4]; 174 µM in experiment [5]; 247 µM and > 250 µM in experiment [9]. In addition, the GI50 is 180 µM and > 250 µM in [10]; 139 µM and > 250 µM in experiment [7]; 72.2 µM and 107 µM in [8]. The TGI in experiment [1] is 248 µM and > 250 µM; in [2] it was above 250 µM; in experiment [3], 209 µM and 161 µM; in [4], above 242 µM; in experiment [5] it was above 246 µM; in [9], above 250 µM. Also, the TGI in experiment [10] was above 250 µM; in [7], 240 µM and > 250 µM; in experiment [8], 180 µM and 192 µM.

`COc1ccc(-c2cc(=O)c3cc(OC)ccc3[nH]2)cc1`: the TGI in experiment [2], in experiment [3], in experiment [4], in experiment [5], in experiment [6] and in experiment [7] was above 100 µM each time. The molecule also returned a TGI in [8] above 100 µM.

With `COC(=O)C(C(=O)C(=O)Nc1ccc([N+](=O)[O-])cc1[N+](=O)[O-])c1nc2ccc(Cl)cc2[nH]c1=O` (stereo unspecified), the TGI in experiment [1], in experiment [3], in experiment [4], in [5], in [6] and in experiment [7] was above 100 µM each time. This molecule registered a TGI in experiment [8] above 100 µM.

`Cc1cccc(C(C)(C)C)c1NC(=O)CC1C(=O)Nc2ccccc2S1(=O)=O` (stereo unspecified): the TGI stood at 28.4 µM in experiment [1]; 24.5 µM in experiment [2]; 25.5 µM in [3]; 23.3 µM in experiment [4]; 30.3 µM in [5]; 24.8 µM in experiment [6]. In addition, in experiment [8], the TGI turned out to be 25.4 µM.

In the case of `O=C(Cc1ccc(F)c(F)c1)Nc1cc(C2(C(F)(F)F)CC2)nn1Cc1ccccc1`, the GI50 is 0.548 µM in experiment [1]; 4.27 µM in [3]; 2.99 µM in [4]; 4.81 µM in experiment [5]; 3.05 µM in experiment [9]; 3.67 µM in [10]. The values for the GI50 in experiment [7] and in experiment [8] were 4.55 µM and 2.49 µM, respectively. In addition, the TGI in [1] is 4.35 µM; in [3], above 15 µM; in [4] it was 10.5 µM; in experiment [5], above 15 µM; in experiment [9] it was 7.25 µM; in experiment [10], 11.4 µM. Also, the TGI was above 15 µM in experiment [7] and 7.85 µM in experiment [8].

These data come from PubChem BioAssay (NCI).
